Reference: paper PMC4886532, “A highly soluble, non-phototoxic, non-fluorescent blebbistatin derivative” (Scientific Reports, 2016)
In brackets after ≈: the same amount, converted by molar mass.

Experiments:
zebrafish heart muscle = assay: Heart beating and amplitude of heart muscle contraction; type: in vivo, zebrafish (Danio rerio); conditions: 20 μM, 6 dpf
Experimental: (§1) Since the myosin II inhibitors decrease the ATPase activity of SkS1 in vitro, we tested their inhibition on zebrafish skeletal muscle in vivo. We investigated the fast escape response (C-start) reflex of 6 dpf fish evoked by standardized tapping stimuli (Video 1). […] The velocity of the rotating heads of the embryos were quantified (maximal angular velocity) in the absence and in the presence of increasing concentrations of the myosin II inhibitors (2, 5, 10, 20 μM), monitored for 4 hours. The half maximal effective concentration (EC50) values for the inhibition of the maximal angular velocity by the myosin II inhibitors are below 2 μM since even at 2 μM the inhibitory effects were >90% for all inhibitors. We experienced that the inhibitory effect of para-aminoblebbistatin is exerted much slower than that of blebbistatin and para-nitroblebbistatin, probably due to its slower uptake (half inhibitions at […], respectively) (Supplementary Figure 1). To further evaluate the specificity of blebbistatin and its derivatives on different myosin II isoforms, we examined the effect of the inhibitors on 6 dpf (days post fertilization) zebrafish heart muscle in vivo. We monitored heart beating and the amplitude of heart muscle contraction before and after the addition of 20 μM of the inhibitors to the specimens.
(§2) The tapping force was standardized. […] For the cytotoxicity assay, zebrafish embryos were incubated in E3 medium containing 0 μM (Control), 5 μM, 10 μM or 20 μM of para-aminoblebbistatin, para-nitroblebbistatin or blebbistatin in 0.1 vol/vol% final concentration of DMSO and monitored for 70 hours.

M2 cells = assay: Inhibition of blebbing (blebbing index) of M2 cells; type: cell-based, human
Experimental: Next, we compared the non-muscle myosin II inhibition by para-aminoblebbistatin, para-nitroblebbistatin and blebbistatin in human melanoma (M2) and HeLa cells. As blebbistatin acquired its name from its ability to block blebbing of M2 cells, we compared blebbing indices[17] of M2 cells in time, incubated in the three different myosin II inhibitors at different concentrations (Fig. 3c–e). Even 5 μM concentrations of the myosin II inhibitors achieved significant decrease in the blebbing indices of the cells within an hour, whereas higher concentrations of the inhibitors completely stopped blebbing of the cells within >40–60 minutes (10 μM) or >20 minutes (25 and 50 μM).
For blebbing index determination, M2 cells were incubated for 30 minutes in PBS in every case prior to the addition of inhibitors, in order to initiate extensive blebbing. Blebbing of the cells was monitored before as well as after inhibitor addition to the cells. DMSO concentration was 0.1 vol/vol% in all experiments. Blebbing index was calculated by summing the initiated blebs in a 5-minute interval (starting at the indicated time points) on a given standard area[17] (whole cells with similar size, diameter = 12 ± 1 μm) and normalizing it to the blebbing index prior to inhibitor treatment.

[1] = system: cldnb:gfp zebrafish embryos; assay: Posterior lateral line primordium (pLLp) migration; type: in vivo, zebrafish (Danio rerio); conditions: 20 μM, 24 hours of incubation
Experimental: However, the highly fluorescent, dense precipitates of blebbistatin disturb imaging in the GFP channel of the microscope. […] In this experiment, cldnb:gfp zebrafish embryos were imaged by an epifluorescent microscope after 24 hours of incubation in the presence of 20 μM concentrations of the indicated inhibitors (Fig. 4d) in order to detect the effect of myosin II inhibition on the proliferating leading edge of the posterior lateral line primordium (pLLp)[21] and visualize the effect of the precipitates by epifluorescent microcopy. […] In the case of para-aminoblebbistatin treatment, the GFP signal of the migrating pLLp can be visualized clearly, while the precipitates of the two other inhibitors highly disturbed the imaging.

HeLa cells [2] = assay: Wound healing assay (cell motility); type: cell-based, human; conditions: 20 μM, 24 hours, uncoated glass; 100% = total diameter of the wound; control 30.6 ± 5.4%
Experimental: For wound healing assays, 200 μl of HeLa cells were plated on 35 mm borosilicate glass imaging dishes at 300,000 cells/ml concentrations and incubated for 24 hours. 1 hour prior to wounding, cells were incubated in 20 μM of the different myosin II inhibitors. After one hour, scratches were made with pipette tips in monolayer cultures and the motility of cells for occupying the wound was monitored for 24 hours with a Foculus Digital Camera (IEEE1394). Analysis of cell motility was carried out by ImageJ, by measuring the distance between two lines fitted on the two sides of the approaching cell edges created by the pipette tips.

[3] = target: T1, rabbit skeletal muscle myosin S1 (SkS1) (Oryctolagus cuniculus, UniProt Q28641); assay: Steady state actin activated ATPase, SkS1; type: biochemical; conditions: for IC50: 45 μM actin, 25 °C
T1 construct: SkS1 (rabbit skeletal S1 fragment); from tissue; host or cells: rabbit skeletal muscle
Experimental: […]. Myosin and actin together with the indicated concentration of the inhibitor were pre-incubated for 5 minutes at room temperature and the measurements were initiated with 1 mM ATP. Data were corrected for background ATPase activity of actin. G-actin was prepared accordingly from rabbit skeletal muscle[24] and polymerized by 2 mM MgCl2 for 1 hour at room temperature. Measurements were performed in low salt buffer containing 5 mM HEPES, 2 mM MgCl2, 0.1 mM EGTA and 2 mM DTT at pH 7.2 or assay buffer containing 20 mM HEPES, 40 mM NaCl, 4 mM MgCl2 at pH 7.3 for basal ATPase activity measurements with DdMD.

[4] = system: zebrafish skeletal muscle; assay: Fast escape response (C-start), maximal angular velocity; type: in vivo, zebrafish (Danio rerio); conditions: 2 μM
Experimental: as §1, §2

[5] = target: T1, rabbit skeletal muscle myosin S1 (SkS1); assay: Steady state basal ATPase, SkS1; type: biochemical; conditions: 25 °C
[6] = Solubility assays in assay buffer (supernatant concentration after centrifugation); conditions: for Solubility: room temperature
Experimental: 50 μM of the inhibitors were dissolved in assay buffer (see Experimental Procedures) containing 0.1 or 1 vol/vol% DMSO, centrifuged at the indicated times and the concentration of the supernatants were determined at each time point (Fig. 2a,b).
The DMSO content was 1%. […] The experiments were repeated three times.

HeLa cells [7] = system: HeLa cells; set-up: method as in PMID 15676022; conditions: compared to 100% of the control; cited from earlier work
[8] = system: rabbit skeletal muscle myosin II; set-up: method as in PMID 15205456; conditions: cited from earlier work

T1 sequence (Q28641 1-844 limits assumed): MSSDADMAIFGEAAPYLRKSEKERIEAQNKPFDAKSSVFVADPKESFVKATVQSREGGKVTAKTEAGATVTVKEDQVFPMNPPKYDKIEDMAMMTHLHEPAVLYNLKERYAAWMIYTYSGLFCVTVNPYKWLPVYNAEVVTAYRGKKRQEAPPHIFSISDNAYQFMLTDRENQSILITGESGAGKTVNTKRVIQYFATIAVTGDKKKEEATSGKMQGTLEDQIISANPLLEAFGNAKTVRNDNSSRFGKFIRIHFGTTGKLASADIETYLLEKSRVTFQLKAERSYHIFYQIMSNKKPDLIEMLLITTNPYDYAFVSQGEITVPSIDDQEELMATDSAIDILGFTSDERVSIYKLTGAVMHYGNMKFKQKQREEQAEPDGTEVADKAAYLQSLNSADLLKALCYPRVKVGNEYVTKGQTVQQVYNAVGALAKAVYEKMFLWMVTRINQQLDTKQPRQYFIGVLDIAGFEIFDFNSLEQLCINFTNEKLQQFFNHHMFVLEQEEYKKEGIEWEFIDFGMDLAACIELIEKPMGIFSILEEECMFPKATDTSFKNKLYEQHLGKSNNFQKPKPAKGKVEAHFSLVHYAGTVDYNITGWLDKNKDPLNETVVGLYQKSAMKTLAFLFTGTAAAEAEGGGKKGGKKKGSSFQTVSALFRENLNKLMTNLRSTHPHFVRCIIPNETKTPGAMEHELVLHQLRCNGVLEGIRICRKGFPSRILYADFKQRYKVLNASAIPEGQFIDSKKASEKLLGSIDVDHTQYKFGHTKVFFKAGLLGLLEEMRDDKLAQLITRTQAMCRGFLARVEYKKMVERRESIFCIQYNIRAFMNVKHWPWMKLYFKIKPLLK
T1 sequence (P02602 whole entry partner, the tested form may be a part): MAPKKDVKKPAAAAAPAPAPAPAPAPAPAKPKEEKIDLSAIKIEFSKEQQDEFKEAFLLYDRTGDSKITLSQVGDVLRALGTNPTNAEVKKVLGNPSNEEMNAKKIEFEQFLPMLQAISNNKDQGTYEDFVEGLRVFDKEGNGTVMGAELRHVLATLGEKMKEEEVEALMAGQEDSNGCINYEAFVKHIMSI

Structure (SMILES) | Time within which amplitude of contraction and blood circulation dropped drastically (zebrafish heart muscle) | Time constant τ of inhibition of blebbing (M2 cells; 5 μM) | Time constant τ of inhibition of blebbing (M2 cells; 10 μM) | Time constant τ of inhibition of blebbing (M2 cells; 25 μM) | Time constant τ of inhibition of blebbing (M2 cells; 50 μM) | Effect on pLLp migration [1] | Relative migration of HeLa cells (HeLa cells [2]) | IC50 [3] | Fold higher IC50 of AmBleb on SkS1 ([3]; comparator not named (matches ratio to Bleb)) | Half inhibition time of maximal angular velocity [4] | IC50 [5] | Concentration at which stable solutions are formed [6] | Motility of HeLa cells on 2D surfaces (HeLa cells [7]) | Solubility ([6]; 0.1 vol/vol% DMSO in assay buffer) | Solubility ([6]; 1 vol/vol% DMSO in assay buffer) | Solubility in aqueous buffer ([6]; abstract statement) | Time to drop to half concentration (precipitation kinetics) ([6]; freshly prepared 50 μM sample) | Equilibrium saturation concentration ([6]; reached in two hours from 50–100 μM) | on-rate constant kon [8]
Cc1ccc2c(c1)C(=O)[C@]1(O)CCN(c3ccc(N)cc3)C1=N2 [para-aminoblebbistatin] | within three hours | 25.0 ± 4.3 min | 16.8 ± 1.6 min | 9.9 ± 0.3 min | 7.8 ± 0.3 min | halted pLLp migration | 62.6 ± 3.6% | 470 ± 60 nM | 4.3 times | 3.2 h | 1300 ± 100 nM | over 100 μM |  |  |  |  |  |  | 
Cc1ccc2c(c1)C(=O)C1(O)CCN(c3ccccc3)C1=N2 (stereo not shown) [blebbistatin] | within the first hour | 24.6 ± 2 min | 10.5 ± 0.8 min | 5.4 ± 1 min |  | halted pLLp migration | 51.4 ± 4.7% | 110 ± 9 nM |  | 0.6 h | 300 ± 30 nM |  | ~ 140% | 10.9 ± 0.9 µM (≈ 3.19 µg/mL) | 9.3 ± 0.7 µM (≈ 2.72 µg/mL) | below 10 micromolar | < 20 min | 9 µM | 3400 M⁻¹ s⁻¹
